The text below walks through data of ChEMBL document CHEMBL5512643, “Structure-based discovery of potent myosin inhibitors to guide antiparasite drug development” (Eur J Med Chem, 2024).

In series [1] the test system is Gyrodactylus kobayashii. The series can be described thus: Antiparasitic activity against Gyrodactylus kobayashii infected in gold fish measured upto 48 hrs by stereomicroscope analysis. Format: functional, organism-based.
The nature of series [2]: Inhibition of Gyrodactylus kobayashii Myosin N439A mutant ATPase activity incubated for 30 min.
The nature of series [3]: Inhibition of wild type Gyrodactylus kobayashii Myosin ATPase activity incubated for 30 mins.
In series [4] the test system is Gyrodactylus kobayashii. The series can be described thus: Binding affinity to Gyrodactylus kobayashii Myosin expressed in Escherichia coli BL21 assessed as thermal stabilization at 1 mM at 40 to 50 degreeC by CETSA analysis.
Series [5] is described as follows: Acute toxicity in gold fish infected with Gyrodactylus kobayashii measure upto 48 hrs by microscopic analysis. The conditions noted are these: carassius auratus.
In another series the test system is SARS-CoV-2. Kind of series: Antiviral activity against SARS-CoV-2 infected in African green monkey Vero cells assessed as inhibition of viral replication pretreated with compound for 2 hr followed by viral infection and measured after 48 hrs by indirect immunofluorescence assay. It counts as functional, organism-based. The conditions noted are these: Severe acute respiratory syndrome coronavirus 2, Vero.

Series [6] is described as follows: Therapeutic index, ratio of LC50 for acute toxicity in gold fish infected with Gyrodactylus kobayashii to EC50 for antiparasitic activity against Gyrodactylus kobayashii infected in gold fish. As to conditions: goldfish.
[7] abbreviates: Gyrodactylus kobayashii, 48 h, read-out: EC50.

In brackets after ≈: the same amount, converted by molar mass. Activity calls are given as the source filed them. The calls are words filed in the database; no cut-off is given here.

For orientation: EC50 means the concentration giving half of the maximal effect. A word on the IC50: it is the concentration needed to halve the response being measured. Broadly, the LC50 is the concentration lethal to half of the exposed cells or organisms.

With `O=c1cc(-c2ccccc2)oc2c([C@@H]3OC[C@H](O)[C@H](O)[C@H]3O)c(O)c([C@@H]3O[C@H](CO)[C@@H](O)[C@H](O)[C@H]3O)c(O)c12`, in the series with Gyrodactylus kobayashii [1] (setting [7]), the EC50 stood at 7.58 µg/mL (≈ 13.8 µM).

With `COc1cc(C[C@H]2C(=O)OC[C@@H]2Cc2ccc(OC)c(OC)c2)ccc1O` [ARCTIGENIN], the IC50 in series [2] is 3210 µM; in series [3], 677 µM. The result in the series on Gyrodactylus kobayashii [4] was Active. The compound also gave an LC50 at 48 h in series [5] of 11.6 µg/mL (≈ 31.2 µM). Also, the EC50 with Gyrodactylus kobayashii [1] (setting [7]) came out at 1.85 µg/mL (≈ 4.97 µM).

In the case of `O=C(O)[C@H]1O[C@@H](Oc2cc3oc(-c4ccc(O)cc4)cc(=O)c3c(O)c2O)[C@H](O)[C@@H](O)[C@@H]1O` [SCUTELLARIN], the LC50 at 48 h in series [5] was 13.3 µg/mL (≈ 28.7 µM). Also, the EC50 with Gyrodactylus kobayashii [1] (setting [7]) worked out at 7.15 µg/mL (≈ 15.5 µM).

`C[C@@H]1O[C@@H](O[C@H]2C(=O)c3c(O)cc(O)cc3O[C@H]2c2ccc(O)c(O)c2)[C@H](O)[C@H](O)[C@H]1O` yielded an LC50 at 48 h in series [5] of 26.5 µg/mL (≈ 58.7 µM). This compound yielded an LC50 in series [5] (48 h) of 24.975 µg/mL (≈ 55.5 µM). The EC50 with Gyrodactylus kobayashii [1] (setting [7]) turned out to be 15.9 µg/mL (≈ 35.3 µM).

`CCCCC[C@H](O)/C=C/[C@H]1[C@H](O)CC(=O)[C@@H]1CCCCCCC(=O)O` [ALPROSTADIL] gave an LC50 at 48 h in series [5] of 30.5 µg/mL (≈ 86 µM). Also, in the series on Gyrodactylus kobayashii [1] (setting [7]), the EC50 came out at 16.2 µg/mL (≈ 45.8 µM).

On to `C#CCC(Cc1cnc2nc(N)nc(N)c2n1)c1ccc(C(=O)N[C@@H](CCC(=O)O)C(=O)O)cc1` (some centres not stated) [PRALATREXATE], for which the EC50 in the series with SARS-CoV-2 stood at 0.008 µM.

`CO[C@H]1C[C@H](O[C@H]2CC[C@]3(C)[C@H]4CC[C@]5(C)[C@@H](C6=CC(=O)OC6)CC[C@]5(O)[C@@H]4CC[C@]3(O)C2)O[C@H](C)[C@H]1O[C@@H]1O[C@H](CO)[C@@H](O)[C@H](O)[C@H]1O`: in series [5], the LC50 at 48 h was determined as 4.12 µg/mL (≈ 5.92 µM). The EC50 with Gyrodactylus kobayashii [1] (setting [7]) was found to be 3.89 µg/mL (≈ 5.59 µM).

As for `CC(C)=CC[C@@H](O)C1=CC(=O)c2c(O)ccc(O)c2C1=O` [SHIKONIN], it took 140 µM to reach half-maximal inhibition in series [3] (IC50). In addition, the LC50 at 48 h in series [5] amounted to 1.29 µg/mL (≈ 4.47 µM). In addition, the results for the EC50 in the series with Gyrodactylus kobayashii [1] and with Gyrodactylus kobayashii [1] (setting [7]) were 0.37 µg/mL (≈ 1.28 µM) and 0.371 µg/mL (≈ 1.29 µM), respectively. Also, the selectivity ratio in series [6] stood at 3.49.

In turn, `C[C@@H]1O[C@@H](Oc2cc(O)c3c(=O)c(O)c(-c4ccc(O)cc4)oc3c2)[C@H](O)[C@H](O)[C@H]1O` [ALPHA-RHAMNOISOROBIN] came in with an LC50 at 48 h in series [5] of 9.3 µg/mL (≈ 21.5 µM). For the same compound, the concentration for a half-maximal effect (EC50) in the series on Gyrodactylus kobayashii [1] (setting [7]) turned out to be 8.27 µg/mL (≈ 19.1 µM).

In series [5], `O=C1C=C(O)C(=O)c2ccccc21` [LAWSONE] returned an LC50 at 48 h of 10.7 µg/mL (≈ 61.4 µM). In the series with Gyrodactylus kobayashii [1] (setting [7]), the EC50 amounted to 3.53 µg/mL (≈ 20.3 µM). Besides, in series [6], the selectivity ratio is 3.03.

`O=C1C=CC(=O)c2ccccc21` [NAPHTHOQUINONE] came in with an LC50 at 48 h in series [5] of 0.23 µg/mL (≈ 1.45 µM). Further, the EC50 in the series with Gyrodactylus kobayashii [1] (setting [7]) is 0.047 µg/mL (≈ 0.297 µM). The selectivity ratio in series [6] worked out at 4.89.

`Cc1c([C@H](C)[C@@H]2NC[C@@H](C)C[C@H]2O)ccc2c1C[C@H]1[C@H]2CC=C2C[C@@H](O[C@@H]3O[C@H](CO)[C@@H](O)[C@H](O)[C@H]3O)CC[C@@]21C` returned an LC50 at 48 h in series [5] of 15.2 µg/mL (≈ 26.7 µM). For the same compound, in the series on Gyrodactylus kobayashii [1] (setting [7]), the EC50 is 4.58 µg/mL (≈ 8.02 µM).

As to `O=C1c2ccccc2C(=O)c2c1cc(O[C@@H]1O[C@H](CO[C@@H]3OC[C@@H](O)[C@H](O)[C@H]3O)[C@@H](O)[C@H](O)[C@H]1O)c(CO)c2O` [LUCIDIN PRIMEVOROSIDE], the 50% lethal concentration (LC50) at 48 h in series [5] is 8.24 µg/mL (≈ 14.6 µM). In addition, the EC50 in the series on Gyrodactylus kobayashii [1] (setting [7]) worked out at 4.15 µg/mL (≈ 7.35 µM).

For the compound `CC1=CC(=O)c2ccccc2C1=O` [MENADIONE], the LC50 at 48 h in series [5] amounted to 1.19 µg/mL (≈ 6.93 µM). For the same compound, in the series with Gyrodactylus kobayashii [1] (setting [7]), the concentration giving a half-maximal response (EC50) amounted to 0.341 µg/mL (≈ 1.98 µM). Besides, in series [6], the selectivity ratio was 3.5.

Regarding `C[C@@H]1O[C@@H](Oc2cc(O)c3c(=O)c(O)c(-c4ccc(O)cc4)oc3c2O)[C@H](O)[C@H](O[C@@H]2O[C@H](CO)[C@@H](O)[C@H](O)[C@H]2O)[C@H]1O`, in series [5], the LC50 at 48 h came to 13.2 µg/mL (≈ 21.7 µM). Also, the EC50 in the series on Gyrodactylus kobayashii [1] (setting [7]) is 11.3 µg/mL (≈ 18.5 µM).

As to `COc1ccc(CCC(=O)c2c(O)cc(O[C@@H]3O[C@H](CO)[C@@H](O)[C@H](O)[C@H]3O[C@@H]3O[C@@H](C)[C@H](O)[C@@H](O)[C@H]3O)cc2O)cc1O` [NEOHESPERIDIN DIHYDROCHALCONE], the LC50 at 48 h in series [5] was found to be 25.5 µg/mL (≈ 41.6 µM). In the series on Gyrodactylus kobayashii [1] (setting [7]), the EC50 amounted to 13.4 µg/mL (≈ 21.9 µM).

The compound `NC(=O)[C@@H]1CCCN1C(=O)[C@H](Cc1cnc[nH]1)NC(=O)[C@@H]1CCC(=O)N1` [PROTIRELIN] registered an LC50 at 48 h in series [5] of 16.3 µg/mL (≈ 44.9 µM). Moreover, in the series with Gyrodactylus kobayashii [1] (setting [7]), the EC50 is 9.52 µg/mL (≈ 26.3 µM).

As to `O=C1C=CC(=O)c2c(O)cccc21` [JUGLONE], the EC50 in the series with Gyrodactylus kobayashii [1] (setting [7]) stood at 0.72 µg/mL (≈ 4.13 µM).

Consider `O=C(/C=C/c1ccccc1)c1ccccc1` [CHALCONE], for which the IC50 in series [3] was found to be 440 µM. The LC50 at 48 h in series [5] stood at 7.66 µg/mL (≈ 36.8 µM). Besides, in the series with Gyrodactylus kobayashii [1] (setting [7]), the EC50 was found to be 1.08 µg/mL (≈ 5.21 µM).

In series [5], `COC(=O)[C@H]1O[C@@H](Oc2cc3oc(-c4ccc(O)cc4)cc(=O)c3c(O)c2O)[C@H](O)[C@@H](O)[C@@H]1O` yielded an LC50 at 48 h of 11.4 µg/mL (≈ 23.9 µM). The EC50 with Gyrodactylus kobayashii [1] (setting [7]) is 7.23 µg/mL (≈ 15.2 µM).

In the case of `O=C1OC[C@H]2O[C@@H](Oc3cc(O)c(C(=O)CCc4ccccc4)c(O)c3)[C@H](O)[C@@H](O)[C@@H]2OC(=O)c2cc(O)c(O)c(O)c2-c2c1cc(O)c(O)c2O` [THONNINGIANIN B], the median lethal concentration (LC50) at 48 h in series [5] came to 21.5 µg/mL (≈ 29.8 µM). Further, in the series on Gyrodactylus kobayashii [1] (setting [7]), the EC50 was 6.31 µg/mL (≈ 8.73 µM).

Regarding `COc1cc(C2Oc3ccc(C4Oc5cc(O)cc(O)c5C(=O)C4O)cc3OC2CO)ccc1O` (configuration not stated), the LC50 at 48 h in series [5] was 26.2 µg/mL (≈ 54.4 µM). In the series with Gyrodactylus kobayashii [1] (setting [7]), the EC50 turned out to be 7.53 µg/mL (≈ 15.6 µM).
